Measurements as given in patent US9963496B2, “Stable glucagon analogues and use for treatment of hypoglycaemia” (Novo Nordisk A/S, priority 2014, dated 2018).
*1 amine or outer side, *2 acyl side, *3 side chain or, on linkers, in order; H or OH if unused. Where a SMILES comes first, the peptide text is derived from it. Side-chain parts run from the residue outwards. [ ]: non-standard residue; d: D form. The star is where a group is joined. γGlu = O=C(O)[C@H](CCC(=O)[*:2])N[*:1]; Desaminohistidyl = O=C(CCc1c[nH]cn1)*; Aib = CC(C)(N)C(=O)O

Assay: physchem
Type: physicochemical
Conditions: pH 7.5
Description: Assay (III): ThT Fibrillation Assay for the Assessment of Physical Stability of Peptide Compositions The purpose of this assay is to assess the physical stability of the glucagon derivatives of the invention in aqueous solutions. Low physical stability of a peptide may lead to amyloid fibril formation, which is observed as well-ordered, thread-like macromolecular structures in the sample, which eventually may lead to gel formation. This has traditionally been measured by visual inspection of the sample. However, that kind of measurement is very cumbersome and depending on the observer. Therefore, the application of a small molecule indicator probe is much more advantageous. Thioflavin T (ThT) is such a probe and has a distinct fluorescence signature when binding to fibrils [Naiki et al. (1989) Anal. Biochem. 177, 244-249; LeVine (1999) Methods. Enzymol. 309, 274-284]. Here, as depicted in FIG. 1, F is the ThT fluorescence at the time t. The constant t0 is the time needed to reach 50% of maximum fluorescence. The two important parameters describing fibril formation are the lag-time calculated by t0−2τ and the apparent rate constant kapp 1/τ. Samples were prepared freshly before each assay. Each sample composition is described in the legends. The pH of the sample was adjusted to the desired value using appropriate amounts of concentrated NaOH and HCl. Thioflavin T was added to the samples from a stock solution in H2O to a final concentration of 1 μM. Sample aliquots of 200 μl (250 μM of the glucagon derivative/analogue in 10 mM HEPES buffer, pH 7.5) were placed in a 96 well microtiter plate (Packard OptiPlate™-96, white polystyrene). Usually, four or eight replica of each sample (corresponding to one test condition) was placed in one column of wells. The plate was sealed with Scotch Pad (Qiagen). Incubation at given temperature, shaking and measurement of the ThT fluorescence emission were done in a Fluoroskan Ascent FL fluorescence platereader (Thermo Labsystems). The plate was incubated 37° C. with orbital shaking adjusted to 960 rpm with an amplitude of 1 mm. Fluorescence measurement was done using excitation through a 444 nm filter and measurement of emission through a 485 nm filter. Each run was initiated by incubating the plate at the assay temperature for 10 min. The plate was measured every 20 minutes for a desired period of time. Between each measurement, the plate was shaken and heated as described. After completion of the ThT assay the four or eight replica of each sample was pooled and centrifuged at 20000 rpm for 30 minutes at 18° C. The supernatant was filtered through a 0.22 μm filter and an aliquot was transferred to a HPLC vial. The concentration of peptide in the initial sample and in the filtered supernatant was determined by reverse phase HPLC using an appropriate standard as reference. The percentage fraction the concentration of the filtered sample constituted of the initial sample concentration was reported as the recovery. The measurement points were saved in Microsoft Excel format for further processing and curve drawing and fitting was performed using GraphPad Prism. The background emission from ThT in the absence of fibrils was negligible. The data points were typically a mean of four or eight samples and shown with standard deviation error bars. Only data obtained in the same experiment (i.e. samples on the same plate) were presented in the same graph ensuring a relative measure of fibrillation between experiments. The data set may be fitted to Eq. (1).

Row | Structure (SMILES) | recovery at 250 μM [%]
1 | CC(=O)N[C@@H](CCC(=O)N[C@@H](CCC(=O)N[C@@H](CCC(=O)N[C@@H](CCC(=O)NCCCC[C@H](NC(=O)[C@H](CCC(=O)O)NC(=O)[C@H](CC(C)C)NC(=O)[C@H](Cc1ccc(O)cc1)NC(=O)[C@H](CCCCN)NC(=O)[C@H](CO)NC(=O)[C@H](Cc1ccc(O)cc1)NC(=O)[C@H](CC(=O)O)NC(=O)[C@H](CO)NC(=O)[C@@H](NC(=O)[C@H](Cc1ccccc1)NC(=O)[C@@H](NC(=O)CNC(=O)[C@H](Cc1c[nH]cn1)NC(=O)[C@H](CO)NC(=O)CCc1c[nH]cn1)[C@@H](C)O)[C@@H](C)O)C(=O)N[C@@H](CCCNC(=N)N)C(=O)N[C@@H](CCCNC(=N)N)C(=O)N[C@@H](C)C(=O)N[C@@H](CCC(N)=O)C(=O)N[C@@H](CCC(=O)O)C(=O)N[C@@H](Cc1ccccc1)C(=O)N[C@H](C(=O)N[C@@H](CCC(N)=O)C(=O)N[C@@H](Cc1c[nH]c2ccccc12)C(=O)N[C@@H](CC(C)C)C(=O)N[C@@H](CC(C)C)C(=O)N[C@@H](CO)C(=O)N[C@H](C(=O)O)[C@@H](C)O)C(C)C)C(=O)O)C(=O)O)C(=O)O)C(=O)O [Example 11, N^ϵ16-[(4S)-4-[[(4S)-4-[[(4S)-4-[[(4S)-4-acetamido-4-carboxybutanoyl]amino]-4-carboxybutanoyl]amino]-4-carboxybutanoyl]amino]-4-carboxybutanoyl]-[Imp1, His3, Glu15, Lys16, Glu21, Leu27, Ser28]-Glucagon] (Desaminohistidyl-SHGTFTSDYSKYLEK([γGlu-γGlu-γGlu-γGlu-Ac])RRAQEFVQWLLST-OH) | 98
2 | CC(=O)N[C@@H](CCC(=O)N[C@@H](CCC(=O)N[C@@H](CCC(=O)N[C@@H](CCC(=O)NCCCC[C@H](NC(=O)[C@H](C)NC(=O)[C@H](CCCNC(=N)N)NC(=O)[C@H](CCCNC(=N)N)NC(=O)[C@H](CO)NC(=O)[C@H](CCC(=O)O)NC(=O)[C@H](CC(C)C)NC(=O)[C@H](Cc1ccc(O)cc1)NC(=O)[C@H](CCCCN)NC(=O)[C@H](CO)NC(=O)[C@H](Cc1ccc(O)cc1)NC(=O)[C@H](CC(=O)O)NC(=O)[C@H](CO)NC(=O)[C@@H](NC(=O)[C@H](Cc1ccccc1)NC(=O)[C@@H](NC(=O)CNC(=O)[C@H](Cc1c[nH]cn1)NC(=O)[C@H](CO)NC(=O)CCc1c[nH]cn1)[C@@H](C)O)[C@@H](C)O)C(=O)N[C@@H](CCC(=O)O)C(=O)N[C@@H](Cc1ccccc1)C(=O)N[C@H](C(=O)N[C@@H](CCC(N)=O)C(=O)N[C@@H](Cc1c[nH]c2ccccc12)C(=O)N[C@@H](CC(C)C)C(=O)N[C@@H](CC(C)C)C(=O)N[C@@H](CO)C(=O)N[C@H](C(=O)O)[C@@H](C)O)C(C)C)C(=O)O)C(=O)O)C(=O)O)C(=O)O [Example 12, N^ϵ20-[(4S)-4-[[(4S)-4-[[(4S)-4-[[(4S)-4-acetamido-4-carboxybutanoyl]amino]-4-carboxybutanoyl]amino]-4-carboxybutanoyl]amino]-4-carboxybutanoyl]-[Imp1, His3, Glu15, Lys20, Glu21, Leu27, Ser28]-Glucagon] (Desaminohistidyl-SHGTFTSDYSKYLESRRAK([γGlu-γGlu-γGlu-γGlu-Ac])EFVQWLLST-OH) | 88
3 | CC(=O)N[C@@H](CCC(=O)N[C@@H](CCC(=O)N[C@@H](CCC(=O)N[C@@H](CCC(=O)NCC(=O)NCCCC[C@H](NC(=O)[C@@H](NC(=O)[C@H](Cc1ccccc1)NC(=O)[C@H](CCC(=O)O)NC(=O)[C@H](CCC(N)=O)NC(=O)[C@H](C)NC(=O)[C@H](CCCNC(=N)N)NC(=O)[C@H](CCCNC(=N)N)NC(=O)[C@H](CO)NC(=O)[C@H](CCC(=O)O)NC(=O)[C@H](CC(C)C)NC(=O)[C@H](Cc1ccc(O)cc1)NC(=O)[C@H](CCCCN)NC(=O)[C@H](CO)NC(=O)[C@H](Cc1ccc(O)cc1)NC(=O)[C@H](CC(=O)O)NC(=O)[C@H](CO)NC(=O)[C@@H](NC(=O)[C@H](Cc1ccccc1)NC(=O)[C@@H](NC(=O)CNC(=O)[C@H](Cc1c[nH]cn1)NC(=O)[C@H](CO)NC(=O)CCc1c[nH]cn1)[C@@H](C)O)[C@@H](C)O)C(C)C)C(=O)N[C@@H](Cc1c[nH]c2ccccc12)C(=O)N[C@@H](CC(C)C)C(=O)N[C@@H](CC(C)C)C(=O)N[C@@H](CO)C(=O)N[C@H](C(=O)O)[C@@H](C)O)C(=O)O)C(=O)O)C(=O)O)C(=O)O [Example 17, N^ϵ24-[2-[[(4S)-4-[[(4S)-4-[[(4S)-4-[[(4S)-4-acetamido-4-carboxybutanoyl]amino]-4-carboxybutanoyl]amino]-4-carboxybutanoyl]amino]-4-carboxybutanoyl]amino]acetyl]-[Imp1, His3, Glu15, Glu21, Lys24, Leu27, Ser28]-Glucagon] (Desaminohistidyl-SHGTFTSDYSKYLESRRAQEFVK([Gly-γGlu-γGlu-γGlu-γGlu-Ac])WLLST-OH) | 100

Next, values leading:

Row | recovery at 250 μM [%] | Structure (SMILES)
4 | 100 | CC(=O)N[C@@H](CCC(=O)N[C@@H](CCC(=O)N[C@@H](CCC(=O)N[C@@H](CCC(=O)NCCCC[C@H](NC(=O)[C@@H](NC(=O)[C@H](Cc1ccccc1)NC(=O)[C@H](CC(=O)O)NC(=O)[C@H](CCC(N)=O)NC(=O)[C@H](C)NC(=O)[C@H](CCCNC(=N)N)NC(=O)[C@H](CCCNC(=N)N)NC(=O)[C@H](CO)NC(=O)[C@H](CCC(=O)O)NC(=O)[C@H](CC(C)C)NC(=O)[C@H](Cc1ccc(O)cc1)NC(=O)[C@H](CCCCN)NC(=O)[C@H](CO)NC(=O)[C@H](Cc1ccc(O)cc1)NC(=O)[C@H](CC(=O)O)NC(=O)[C@H](CO)NC(=O)[C@@H](NC(=O)[C@H](Cc1ccccc1)NC(=O)[C@@H](NC(=O)CNC(=O)[C@H](Cc1c[nH]cn1)NC(=O)[C@H](CO)NC(=O)CCc1c[nH]cn1)[C@@H](C)O)[C@@H](C)O)C(C)C)C(=O)N[C@@H](Cc1c[nH]c2ccccc12)C(=O)N[C@@H](CC(C)C)C(=O)N[C@@H](CC(C)C)C(=O)N[C@@H](CO)C(=O)N[C@H](C(=O)O)[C@@H](C)O)C(=O)O)C(=O)O)C(=O)O)C(=O)O [Example 5, N^ϵ24-[(4S)-4-[[(4S)-4-[[(4S)-4-[[(4S)-4-acetamido-4-carboxybutanoyl]amino]-4-carboxybutanoyl]amino]-4-carboxybutanoyl]amino]-4-carboxybutanoyl]-[Imp1, His3, Glu15, Lys24, Leu27, Ser28]-Glucagon] (Desaminohistidyl-SHGTFTSDYSKYLESRRAQDFVK([γGlu-γGlu-γGlu-γGlu-Ac])WLLST-OH)
5 | 100 | CC(=O)N[C@@H](CCC(=O)N[C@@H](CCC(=O)N[C@@H](CCC(=O)N[C@@H](CCC(=O)NCCCC[C@H](NC(=O)[C@@H](NC(=O)[C@H](Cc1ccccc1)NC(=O)[C@H](CC(=O)O)NC(=O)[C@H](CCC(N)=O)NC(=O)[C@H](C)NC(=O)[C@H](CCCNC(=N)N)NC(=O)[C@H](CCCNC(=N)N)NC(=O)[C@H](CO)NC(=O)[C@H](CCC(=O)O)NC(=O)[C@H](CC(C)C)NC(=O)[C@H](Cc1ccc(O)cc1)NC(=O)[C@H](CCCCN)NC(=O)[C@H](CO)NC(=O)[C@H](CC(C)C)NC(=O)[C@H](CC(=O)O)NC(=O)[C@H](CO)NC(=O)[C@@H](NC(=O)[C@H](Cc1ccccc1)NC(=O)[C@@H](NC(=O)CNC(=O)[C@H](Cc1c[nH]cn1)NC(=O)C(C)(C)NC(=O)CCc1c[nH]cn1)[C@@H](C)O)[C@@H](C)O)C(C)C)C(=O)N[C@@H](Cc1c[nH]c2ccccc12)C(=O)N[C@@H](CC(C)C)C(=O)N[C@@H](CC(C)C)C(=O)N[C@@H](CO)C(=O)N[C@H](C(=O)O)[C@@H](C)O)C(=O)O)C(=O)O)C(=O)O)C(=O)O [Example 3, N^ϵ24-[(4S)-4-[[(4S)-4-[[(4S)-4-[[(4S)-4-acetamido-4-carboxybutanoyl]amino]-4-carboxybutanoyl]amino]-4-carboxybutanoyl]amino]-4-carboxybutanoyl]-[Imp1, Aib2, His3, Leu10, Glu15, Lys24, Leu27, Ser28]-Glucagon] (Desaminohistidyl-[Aib]HGTFTSDLSKYLESRRAQDFVK([γGlu-γGlu-γGlu-γGlu-Ac])WLLST-OH)
